# Laboratory results as given in PubChem BioAssay (NCI).
# Several values for one entry are separate records, joined by “and”; a condition that tells them apart may be missing. Identical values can stand only once.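 Briefly, cells in 96-well plates were exposed to five compound concentrations for 48 h, and endpoints were estimated by linear interpolation. At the GI50, growth is halved. TGI: total growth inhibition.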
# Experiments:
# Test in all cases: growth of human tumour cells (NCI), 48 h
# [1] = tested on: HCT-15 colon
# [2] = tested on: HOP-62 NSCLC
# [3] = tested on: IGROV1 ovarian
# [4] = tested on: NCI-H226 lung
# [5] = tested on: NCI-H23 lung
# [6] = tested on: OVCAR-4 ovarian
# [7] = tested on: SNB-75 CNS
# [8] = tested on: SR leukemia
# [9] = tested on: SW-620 colon
# [10] = tested on: U251 CNS
Structure (SMILES),GI50 [1],TGI [1],GI50 [2],TGI [2],GI50 [3],TGI [3],GI50 [4],TGI [4],GI50 [5],TGI [5],GI50 [6],TGI [6],GI50 [7],TGI [7],GI50 [8],TGI [8],GI50 [9],TGI [9],GI50 [10],TGI [10]
CC(C)(C)c1nnc2n(c1=O)N=CC(c1ccc(Br)cc1)S2 (stereo not drawn),20.1 µM,48 µM,37.5 µM,> 100 µM,26.5 µM,92.8 µM,21.4 µM,51 µM,19.8 µM,46.8 µM,33.9 µM,> 100 µM,21.5 µM,96.6 µM,24.2 µM,80.7 µM,35.1 µM,> 100 µM,26 µM,66.9 µM
COC(=O)c1ccccc1N=Cc1ccc(N(CCC#N)S(=O)(=O)c2ccccc2)cc1,–,> 100 µM,–,> 100 µM,–,> 100 µM,–,> 100 µM,–,> 100 µM,–,> 100 µM,–,> 100 µM,–,> 100 µM,–,> 100 µM,–,> 100 µM
Cc1[nH]nc(C(=O)Nc2n[nH]c3ccccc23)c1[N+](=O)[O-],33.4 µM,> 100 µM,> 100 µM,> 100 µM,> 100 µM,> 100 µM,> 100 µM,> 100 µM,> 66.9 µM,> 100 µM,> 100 µM,> 100 µM,64.1 µM,> 100 µM,–,> 49.3 µM,> 100 µM,> 100 µM,> 100 µM,> 100 µM
O=C1NC(=S)NC(=O)C1=Cc1ccc2ccccc2n1,–,> 100 µM,–,> 100 µM,–,> 100 µM,–,> 100 µM,–,> 100 µM,–,> 100 µM,–,> 100 µM,–,> 100 µM,–,> 100 µM,–,> 100 µM
O=[N+]([O-])c1ccc2c(c1)S(=O)c1ccccc1-2 (stereo not drawn),–,> 100 µM,–,> 100 µM,–,> 100 µM,–,> 100 µM,–,> 100 µM,–,> 100 µM,–,> 100 µM,–,> 100 µM,–,> 100 µM,–,> 100 µM
C=C1CO[C@@H]2C[C@@H]1CCC1(C)OC1CC/C(C)=C/CC[C@@]2(C)O (stereo partly drawn),35.8 µM,> 87 µM,> 58.2 µM,> 100 µM,16.3 µM,32 µM,> 100 µM,> 100 µM,27.8 µM,> 73 µM,20.9 µM,59.6 µM,21.7 µM,97.4 µM,1.29 µM,2.72 µM,15.8 µM,38.4 µM,37.6 µM,> 74.2 µM
CC(C)[C@@H](CS(=O)(=O)C(C)C)N1C(=O)[C@@](C)(CC(=O)O)C[C@H](c2cccc(Cl)c2)[C@H]1c1ccc(Cl)cc1,15.3 µM,> 69.3 µM,17.2 µM,56.7 µM,8.61 µM,> 85.1 µM,0.193 µM,0.422 µM,17 µM,56.8 µM,7.45 µM,> 75.9 µM,12.2 µM,> 85.8 µM,0.249 µM,> 40.7 µM,25.5 µM,> 100 µM,7.86 µM,25.3 µM
COc1cccc2c1C(=O)c1c(O)c3c(c(O)c1C2=O)C[C@@](O)(/C(C)=N\O)C[C@@H]3OC1CC(N)C(O)C(C)O1 (stereo partly drawn),–,> 100 µM,–,6.46 µM,–,17.2 µM,–,7.52 µM,–,3.8 µM,–,17.3 µM,–,2.54 µM,–,2.97 µM,–,10.3 µM,–,7.73 µM
CC(C)c1ccc(O)c(=O)cc1,4.95 µM,> 100 µM,3.75 µM,> 100 µM,7.48 µM,> 100 µM,66.7 µM,36.5 µM,17.2 µM,> 74 µM,4.56 µM,> 100 µM,75.4 µM,> 100 µM,4.18 µM,> 100 µM,6.15 µM,> 100 µM,6.53 µM,> 80.9 µM
CCOC(=O)c1cnc2c(cnn2CC)c1NN=C(C)C,32 µM,> 100 µM,65.9 µM,> 100 µM,38.3 µM,> 100 µM,57.4 µM,> 100 µM,> 100 µM,> 100 µM,94.6 µM,> 100 µM,36.6 µM,> 100 µM,33.6 µM,> 100 µM,83.8 µM,> 100 µM,35.6 µM,> 100 µM
OC(C(=Nc1ccccc1)c1ccccc1)c1ccccc1 (stereo not drawn),–,> 100 µM,–,39.8 µM,–,51.7 µM,–,34.1 µM,–,40.4 µM,–,51.8 µM,–,25.4 µM,–,10.7 µM,–,66.5 µM,–,15.6 µM
CCOC(=O)CN(Cc1ccccc1)Cc1c(C(=O)c2ccccc2)c2ccccc2n1C(=O)c1ccccc1,–,> 100 µM,–,> 100 µM,–,> 100 µM,–,> 100 µM,–,> 100 µM,–,> 100 µM,–,> 100 µM,–,> 100 µM,–,> 100 µM,–,> 100 µM
COc1ccc2c(c1)C(=O)c1c-2n(CCCCl)c(=O)c2cc(N(C)C)ccc12,> 100 µM,> 100 µM,26.6 µM,69 µM,33 µM,> 100 µM,54.7 µM,> 100 µM,> 100 µM,> 100 µM,62.9 µM,> 100 µM,21.3 µM,69.2 µM,19.9 µM,> 100 µM,> 100 µM,> 100 µM,23.1 µM,84.2 µM
CC(C)(CCC(C)(C)c1ccccc1)c1ccccc1,–,45.7 µM,–,35.4 µM,–,79.7 µM,–,37.6 µM,–,33.9 µM,–,39.7 µM,–,36.7 µM,–,50 µM,–,35.2 µM,–,30.4 µM
Cc1cccc(N2C(=O)C(=O)C(c3nc4ccccc4s3)C(=O)C2=O)c1C,–,> 100 µM,–,> 100 µM,–,> 100 µM,–,> 100 µM,–,> 100 µM,–,> 100 µM,–,> 100 µM,–,> 100 µM,–,> 100 µM,–,> 100 µM
Cc1nn(C)c(=O)c2nn(-c3ccccc3)c(C)c12,–,> 100 µM,–,> 100 µM,–,> 100 µM,–,> 100 µM,–,> 100 µM,–,> 100 µM,–,> 100 µM,–,> 100 µM,–,> 100 µM,–,> 100 µM

Structure (SMILES),GI50 [1],TGI [1],GI50 [2],TGI [2],GI50 [3],TGI [3],GI50 [4],TGI [4],GI50 [5],TGI [5],GI50 [6],TGI [6],GI50 [7],TGI [7],GI50 [8],TGI [8],GI50 [9],TGI [9],GI50 [10],TGI [10]
O=C(O/N=C1/CCCC/C1=C\c1ccccc1)c1ccc(Cl)cc1,–,> 100 µM,–,> 100 µM,–,> 100 µM,–,> 100 µM,–,> 100 µM,–,> 100 µM,–,> 100 µM,–,> 100 µM,–,> 100 µM,–,> 100 µM
CC1(C)CC[C@]2(C(=O)O)CC[C@]3(C)[C@H](CC[C@@H]4[C@@]5(C)CCC(=O)C(C)(C)[C@@H]5CC[C@]43C)[C@H]2[C@H]1OC(=O)C(F)(F)F,4.99 µM,18.1 µM,13.2 µM,27.8 µM,18.9 µM,40.5 µM,13.5 µM,34 µM,11 µM,28.6 µM,13.1 µM,29.8 µM,26.4 µM,> 100 µM,3.75 µM,33.8 µM,11.6 µM,28.1 µM,12.4 µM,26.2 µM
CN1CCN(c2cc(Nc3cc(C4CC4)[nH]n3)nc(Nc3ccc(CC(=O)NCc4cccc(F)c4)cc3)n2)CC1,2.9 µM,14.5 µM,0.754 µM,14.4 µM,0.237 µM,2.97 µM,0.534 µM,10.9 µM,1.05 µM,9.74 µM,1.55 µM,22 µM,0.168 µM,0.778 µM,0.293 µM,> 20.4 µM,0.12 µM,2.72 µM,0.978 µM,5.24 µM
O=C(/C=C/c1ccc(Cl)cc1)c1ccncc1,–,> 100 µM,–,> 100 µM,–,> 100 µM,–,> 100 µM,–,> 100 µM,–,> 100 µM,–,83.6 µM,–,> 100 µM,–,> 100 µM,–,> 100 µM
COc1cc2c3c(n(CCCNCCN4CCOCC4)c(=O)c2cc1OC)-c1cc2c(cc1C3=O)OCO2,0.453 µM and 2.14 µM,–,–,0.79 µM and 1.93 µM,6.92 µM and 2.12 µM,23.5 µM and > 100 µM,15.1 µM,53.8 µM,–,0.529 µM and 3.83 µM,–,50 µM and 12.2 µM,13.6 µM and 3.69 µM,50 µM and 9.87 µM,< 0.005 µM,–,0.0762 µM,1.33 µM,–,0.959 µM and 4.55 µM
Cc1ccccc1NC(=O)c1sc2nc3c(cc2c1N)C(=O)CCC3,1.64 µM,> 100 µM,7.28 µM,> 100 µM,5.26 µM,> 100 µM,37.6 µM,> 100 µM,4.62 µM,> 100 µM,6.21 µM,> 100 µM,1.66 µM,> 100 µM,2.93 µM,> 100 µM,1.83 µM,> 100 µM,1.67 µM,21.4 µM
Oc1ccc(SCc2ccc(NCc3ccccc3)cc2)cc1,–,> 100 µM,–,> 100 µM,–,> 100 µM,–,> 100 µM,–,> 100 µM,–,> 100 µM,–,67.2 µM,–,47.6 µM,–,> 100 µM,–,> 100 µM
N#Cc1nc(Nc2ccc([N+](=O)[O-])cc2)sc1N,–,> 100 µM,–,75.8 µM,–,> 100 µM,–,> 86.3 µM,–,20.5 µM,–,> 100 µM,–,> 100 µM,–,6.85 µM,–,> 100 µM,–,> 48.5 µM
COc1ccc(-c2[nH]ncc2-c2cc(OC)c(OC)c(OC)c2)cc1,< 0.01 µM,> 80.6 µM,< 0.01 µM,> 100 µM,< 0.01 µM,7.73 µM,< 0.0148 µM,34.8 µM,0.0103 µM,26.7 µM,< 0.0397 µM,29.6 µM,< 0.01 µM,21 µM,< 0.01 µM,19.5 µM,< 0.01 µM,> 41.5 µM,< 0.01 µM,6.11 µM
CN(C)CCCC(=O)Nc1ccc(Cn2nnc3c2C(=O)c2nnn(Cc4ccc(NC(=O)CCCN(C)C)cc4)c2C3=O)cc1,56.8 µM,> 100 µM,17.2 µM,32.8 µM,2.32 µM,5.74 µM,16.5 µM,42.2 µM,2.13 µM,5.01 µM,1.34 µM,2.64 µM,1.69 µM,3.06 µM,3.36 µM,61.4 µM,3.43 µM,12.2 µM,2.69 µM,6.62 µM
CC(C)CC(=O)CC(O)C(Cl)(Cl)Cl (stereo not drawn),–,> 100 µM,–,> 100 µM,–,> 100 µM,–,> 100 µM,–,> 100 µM,–,> 100 µM,–,> 100 µM,–,> 100 µM,–,> 100 µM,–,> 100 µM
CC1=C(c2cc(C(=O)Nc3cccc(C(F)(F)F)c3)nc(NC#N)n2)Sc2ccccc2N1,–,> 100 µM,–,> 100 µM,–,> 100 µM,–,> 100 µM,–,> 100 µM,–,> 100 µM,–,> 100 µM,–,> 100 µM,–,> 100 µM,–,> 100 µM
COC(=O)[C@]12CC[C@@H](C)[C@H](C)[C@@H]1C1=CC[C@@H]3[C@@]4(C)C=C(O)C(=O)C(C)=C4CC[C@@]3(C)[C@]1(C)CC2,11.9 µM,27.6 µM,18 µM,35.9 µM,13.4 µM,36.5 µM,12.3 µM,41 µM,11 µM,27.8 µM,11.9 µM,26.3 µM,13.9 µM,31.3 µM,5.29 µM,28.2 µM,17.3 µM,35.7 µM,16.9 µM,33.6 µM
COc1ccc(N2C(=O)C3c4[nH]c5ccccc5c4C4CCC(C(C)(C)C)CC4C3C2=O)cc1OC (stereo not drawn),–,> 100 µM,–,34.8 µM,–,> 100 µM,–,38.8 µM,–,> 100 µM,–,52.2 µM,–,32.5 µM,–,39.9 µM,–,72 µM,–,73 µM
CCc1nc(N)nc(N)c1-c1ccc(Cl)c(N=NN(C)C)c1,–,> 100 µM,–,> 73.9 µM,–,> 95.5 µM,–,> 100 µM,–,> 100 µM,–,> 46.4 µM,–,> 100 µM,–,44.8 µM,–,> 100 µM,–,> 100 µM
